Patent US20210221848A1, “POLYMYXIN DERIVATIVES AND THEIR USE IN COMBINATION THERAPY TOGETHER WITH DIFFERENT ANTIBIOTICS” (priority 2014, published 2021)
Where two headings read alike, the source gives them in different places.

What was measured:
A. baumannii [1] = assay: MIC in 1:1 (wt:wt) combination with Rifampicin; format: cell-based, Acinetobacter baumannii; conditions: 1:1 (wt:wt) with Rifampicin, total drug concentration
Experimental: (§1) The inoculum was prepared by making a direct suspension of isolated colonies (selected from an 18-24 hour Mueller-Hinton agar plate) adjusted to the 0.5 McFarland standard. […] The assays were performed in duplicate. […] In cases where the duplicate values varied by less than 2-fold, the lower of the two values is reported. If a variation of greater than 2-fold was observed, the assay was considered non-valid. Several of the compounds were subjected to multiple tests, and where this is the case, the MIC reflects the modal value obtained.
(§2) MIC values (microgram/mL) refer to the total drug concentration (i.e. test agent plus Rifampicin).

HK-2 cell line = assay: In vitro renal cell toxicity assay (resazurin reduction); conditions: HK-2 cell IC50 expressed relative to the value for polymyxin B
Experimental: MICs were determined as described herein. HK-2 cell IC50 values were determined as described herein. Values are reported relative to Polymyxin B.

[2] = tested on: Acinetobacter baumannii NCTC 13301; conditions: mouse thigh, 16 h model
[3] = tested on: E. coli strains with elevated MICs to Polymyxin B; assay: MIC against strains with elevated MICs to Polymyxin B; format: cell-based, Escherichia coli; conditions: for MIC E. coli 058: strain 058, elevated MIC to Polymyxin B; for MIC E. coli 059: strain 059, elevated MIC to Polymyxin B; for MIC E. coli 060: strain 060, elevated MIC to Polymyxin B; for MIC E. coli 061: strain 061, elevated MIC to Polymyxin B
In short: (§3)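 Inoculum was a direct suspension of colonies from an 18-24 hour Mueller-Hinton agar plate, adjusted to the 0.5 McFarland standard. Duplicate assays; the lower value was reported when duplicates differed by less than 2-fold, otherwise the run was invalid. Repeat-tested compounds give the modal MIC.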

E. coli [4] = assay: MIC in the presence of a fixed concentration (2 μg/mL) of Rifampicin; format: cell-based, Escherichia coli; conditions: Rifampicin 2 μg/mL, Table 5C
E. coli [5] = assay: MIC in 1:1 (wt:wt) combination with Rifampicin; format: cell-based, Escherichia coli; conditions: 1:1 (wt:wt) with Rifampicin, total drug concentration
Experimental: as §1, §2

P. aeruginosa ATCC 27853 = assay: In vivo efficacy, thigh infection in mice, IV dosing, 9 h model; parameters: species or system Pseudomonas aeruginosa; conditions: mouse thigh
Experimental: Compounds were administered in solution by intravenous (IV) bolus injection into the lateral tail vein. […] At 1 hour post infection, 4 animals were humanely euthanized using pentabarbitone overdose to provide a pre-treatment control group. At 9 hours post infection, the clinical condition of all animals was assessed prior to them being humanely euthanized by pentabarbitone overdose. Animal weight was determined before both thighs were removed and weighed individually. Individual thigh tissue samples were homogenized in ice cold sterile phosphate buffered saline. Thigh homogenates were then quantitatively cultured onto cystine lactose electrolyte deficient (CLED) agar and incubated at 37° C. for 24 hours before colonies were counted.

[6] = tested on: Pseudomonas aeruginosa ATCC 27853; format: in vivo; conditions: mouse lungs, P. aeruginosa ATCC 27853, SC at 2, 6 and 10 h post-infection, 16 h infection model
Experimental: Groups of 7 male neutropenic specific-pathogen-free CD-1 mice weighing 21.5-27.5 g were used. On Day 0, animals were infected with 0.04 mL inoculum by intranasal instillation into mouse nostrils and were kept in an upright position on a string rack for ˜10 min post-infection. […] At 2 h, the CFU count was determined from 3 mice and the remaining mice (7 per test compound groups) were treated with a subcutaneous injection of the drug at +2, 6 and 10 hr post-infection. Test compounds and the comparator polymyxin B were administered at four concentrations (2.6, 8.6, 17.2 and 25.8 mg/kg free base). The vehicle control group (7 mice) was treated with 0.9% saline for injection at 2, 6 and 10 h post-infection.
Sixteen hours after infection, the mice were euthanized humanely. The lungs of each animal were harvested, homogenized and quantitatively cultured onto CLED agar for CFU determination. Decrease of the total CFU compared to control counts at 16 h post-infection was determined for each dose group.
The in vivo efficacy of 4 compounds of the invention (D25, D36, D42 and D50) was evaluated in a mouse lung infection model of P. aeruginosa ATCC 27853. The model was setup as described above with the exception that groups of up to 8 mice were inoculated through intranasal instillation of ˜2.5×10^6 CFUs of P. aeruginosa isolate ATCC 27853 (1.0×10^5 CFU/lung). Test compounds were administered at two concentrations (equivalent to 4.3 and 17.2 mg/kg free base). Three dose levels of polymyxin B sulfate were used as comparator (equivalent to 4.3, 8.6 and 17.2 mg/kg free base).

E. coli [7] = tested on: E. coli
A. baumannii [8] = assay: MIC in the presence of […] of rifampicin; format: cell-based, Acinetobacter baumannii; conditions: A. baumannii ATCC BAA-747, Table 5C
[9] = tested on: P. aeruginosa strains with elevated MICs to Polymyxin B; assay: MIC against strains with elevated MICs to Polymyxin B; format: cell-based, Pseudomonas aeruginosa; conditions: for MIC P. aeruginosa 065: strain 065, elevated MIC to Polymyxin B; for MIC P. aeruginosa 066: strain 066, elevated MIC to Polymyxin B; for MIC P. aeruginosa 067: strain 067, elevated MIC to Polymyxin B
In short: as §3

**Q.** With Polymyxin B [PMB, reference compound] as the substance, how does the “MIC in 1:1 combination with rifampicin, A. baumannii 053” value (A. baumannii [1]; A. baumannii 053) read?
**A.** Its value is at most 0.5 microgram/mL.

**Q.** And the “MIC in 1:1 combination with rifampicin, A. baumannii 056” value (A. baumannii [1]; A. baumannii 056)?
**A.** Its value is at most 0.5 microgram/mL.

**Q.** And the “HK-2 rel to PMB” value (HK-2 cell line)?
**A.** The value was 1.

**Q.** And the “Mean log10 CFU reduction vs. control” value ([2]; 0.215 mg/kg/dose free base SC at 2, 6 and 10 h post-infection)?
**A.** Its value is 0.17 log10 CFU.

**Q.** What about the “Mean log10 CFU reduction vs. control” value ([2]; 0.86 mg/kg/dose free base SC at 2, 6 and 10 h post-infection) of the same substance?
**A.** The value was 1.64 log10 CFU.

**Q.** What about the “Mean log10 CFU reduction vs. control” value ([2]; 2.6 mg/kg/dose free base SC at 2, 6 and 10 h post-infection) of the same substance?
**A.** Its value is 5.44 log10 CFU.

**Q.** And the “Mean log10 CFU reduction vs. control” value ([2]; 8.6 mg/kg/dose free base SC at 2, 6 and 10 h post-infection)?
**A.** The value was 6.15 log10 CFU.

**Q.** What about the “Mean log10 CFU reduction vs. control” value ([2]; 17.2 mg/kg/dose free base SC at 2, 6 and 10 h post-infection) of the same substance?
**A.** The value was 6.53 log10 CFU.

**Q.** And the MIC (K. pneumoniae; K. pneumoniae ATCC 4352)?
**A.** The MIC was 0.25 µg/mL.

**Q.** What about the “MIC, K. pneumoniae ATCC 4352” value (K. pneumoniae; K. pneumoniae ATCC 4352, absence of a second agent, Table 6B) of the same substance?
**A.** The value was 0.25 micrograms/mL.

**Q.** And the MIC (K. pneumoniae; K. pneumoniae ATCC BAA-2146)?
**A.** The MIC was 0.5 µg/mL.

**Q.** What about the “MIC, K. pneumoniae ATCC BAA-2146” value (K. pneumoniae; K. pneumoniae ATCC BAA-2146, absence of a second agent, Table 6B) of the same substance?
**A.** Its value is 0.5 micrograms/mL.

**Q.** And the “MIC, K. pneumoniae ATCC 4352” value (K. pneumoniae; strain ATCC 4352, compound alone)?
**A.** The value was 0.25 micrograms/mL.

**Q.** What about the “MIC, K. pneumoniae ATCC BAA-2146” value (K. pneumoniae; strain ATCC BAA-2146, compound alone) of the same substance?
**A.** Its value is 0.5 micrograms/mL.

**Q.** And the “MIC E. coli 058” value ([3]; Table 6D)?
**A.** Its value is 4 micrograms/mL.

**Q.** What about the “MIC E. coli 058” value ([3]; Table 6F) of the same substance?
**A.** The value was 4 micrograms/mL.

**Q.** What about the “MIC E. coli 059” value ([3]; Table 6D) of the same substance?
**A.** The value was 4 micrograms/mL.

**Q.** What about the “MIC E. coli 059” value ([3]; Table 6F) of the same substance?
**A.** The value was 4 micrograms/mL.

**Q.** What about the “MIC E. coli 060” value ([3]; Table 6D) of the same substance?
**A.** The value was 4 micrograms/mL.

**Q.** What about the “MIC E. coli 060” value ([3]; Table 6F) of the same substance?
**A.** Its value is 4 micrograms/mL.

**Q.** What about the “MIC E. coli 061” value ([3]; Table 6D) of the same substance?
**A.** Its value is 16 micrograms/mL.

**Q.** What about the “MIC E. coli 061” value ([3]; Table 6F) of the same substance?
**A.** The value was 16 micrograms/mL.

**Q.** What about the “MIC in combination with Rifampicin, E. coli ATCC 25922” value (E. coli [4]; E. coli ATCC 25922) of the same substance?
**A.** Its value is at most 0.015 micrograms/mL.

**Q.** What about the “MIC in combination with Rifampicin, E. coli NCTC 13441” value (E. coli [4]; E. coli NCTC 13441) of the same substance?
**A.** Its value is 0.03 micrograms/mL.

**Q.** And the “MIC in 1:1 combination with rifampicin, E. coli 058” value (E. coli [5]; E. coli 058)?
**A.** The value was 1 microgram/mL.

**Q.** What about the “MIC in 1:1 combination with rifampicin, E. coli 059” value (E. coli [5]; E. coli 059) of the same substance?
**A.** The value was at most 0.5 microgram/mL.

**Q.** What about the “MIC in 1:1 combination with rifampicin, E. coli 060” value (E. coli [5]; E. coli 060) of the same substance?
**A.** The value was 1 microgram/mL.

**Q.** And the “MIC in 1:1 combination with rifampicin, E. coli ATCC 25922” value (E. coli [5]; E. coli ATCC 25922)?
**A.** The value was at most 0.5 microgram/mL.

**Q.** What about the “Log reduction from vehicle (CFU/g)” value (P. aeruginosa ATCC 27853; dose 0.85 mg/kg drug base IV at 1, 3.5 and 6 h post-infection) of the same substance?
**A.** Its value is 1.19 log10 CFU/g.

**Q.** And the “Log reduction from vehicle (CFU/g)” value (P. aeruginosa ATCC 27853; dose 3.4 mg/kg drug base IV at 1, 3.5 and 6 h post-infection)?
**A.** The value was 4.23 log10 CFU/g.

**Q.** And the MIC (P. aeruginosa; P. aeruginosa ATCC 27853)?
**A.** Its MIC is 0.5 µg/mL.

**Q.** And the “MIC, P. aeruginosa ATCC 27853” value (P. aeruginosa; P. aeruginosa ATCC 27853, absence of a second agent, Table 6B)?
**A.** Its value is 0.5 micrograms/mL.

**Q.** And the MIC (P. aeruginosa; P. aeruginosa CCUG 59347)?
**A.** Its MIC is 0.5 µg/mL.

**Q.** And the “MIC, P. aeruginosa CCUG 59347” value (P. aeruginosa; P. aeruginosa CCUG 59347, absence of a second agent, Table 6B)?
**A.** The value was 0.5 micrograms/mL.

**Q.** And the “MIC, P. aeruginosa ATCC 27853” value (P. aeruginosa; strain ATCC 27853, compound alone)?
**A.** Its value is 0.5 micrograms/mL.

**Q.** What about the “MIC, P. aeruginosa CCUG 59347” value (P. aeruginosa; strain CCUG 59347, compound alone) of the same substance?
**A.** Its value is 0.5 micrograms/mL.

**Q.** And the “Mean log10 CFU reduction vs. control” value ([6]; 8.6 mg/kg/dose free base)?
**A.** The value was 1.46 log10 CFU.

**Q.** And the “Mean log10 CFU reduction vs. control” value ([6]; 17.2 mg/kg/dose free base)?
**A.** The value was 2.87 log10 CFU.

**Q.** What about the MIC (E. coli [7]; E. coli ATCC 25922) of the same substance?
**A.** The MIC was 0.25 µg/mL.

**Q.** And the “MIC, E. coli ATCC 25922” value (E. coli [7]; E. coli ATCC 25922, absence of a second agent, Table 6B)?
**A.** Its value is 0.25 micrograms/mL.

**Q.** And the MIC (E. coli [7]; E. coli NCTC 13441)?
**A.** Its MIC is 0.25 µg/mL.

**Q.** And the “MIC, E. coli NCTC 13441” value (E. coli [7]; E. coli NCTC 13441, absence of a second agent, Table 6B)?
**A.** Its value is 0.25 micrograms/mL.

**Q.** What about the “MIC, E. coli ATCC 25922” value (E. coli [7]; strain ATCC 25922, compound alone) of the same substance?
**A.** Its value is 0.25 micrograms/mL.

**Q.** What about the “MIC E. coli CCUG 59342” value (E. coli [7]; strain CCUG 59342, compound alone) of the same substance?
**A.** Its value is 0.125 micrograms/mL.

**Q.** What about the “MIC in combination with Rifampicin, A. baumannii ATCC BAA-747” value (A. baumannii [8]) of the same substance?
**A.** The value was 0.03 micrograms/mL.

**Q.** What about the “MIC P. aeruginosa 065” value ([9]; Table 6D) of the same substance?
**A.** Its value is 4 micrograms/mL.

**Q.** And the “MIC P. aeruginosa 065” value ([9]; Table 6F)?
**A.** Its value is 4 micrograms/mL.

**Q.** And the “MIC P. aeruginosa 066” value ([9]; Table 6D)?
**A.** Its value is 8 micrograms/mL.

**Q.** And the “MIC P. aeruginosa 066” value ([9]; Table 6F)?
**A.** Its value is 8 micrograms/mL.

**Q.** What about the “MIC P. aeruginosa 067” value ([9]; Table 6D) of the same substance?
**A.** Its value is 128 micrograms/mL.

**Q.** What about the “MIC P. aeruginosa 067” value ([9]; Table 6F) of the same substance?
**A.** The value was 128 micrograms/mL.
